Data: publication PMC11843629, “Development of ketobenzothiazole-based peptidomimetic TMPRSS13 inhibitors with low nanomolar potency” (Journal of Enzyme Inhibition and Medicinal Chemistry, 2025)
Changes are numbered by the printed parent chain. Like-named read-outs stand apart in the source and are kept apart here.

Tests used:
TMPRSS13 = target: T1, TMPRSS13 (Homo sapiens, UniProt Q9BYE2, K566A/R563A/R565A); experiment: In vitro inhibition assay, recombinant TMPRSS13-AFAAS-6His, Boc-RVRR-AMC; type: biochemical; settings: dose-response curve, Cheng-Prusoff equation
T1 construct: Shedding of the TMPRSS13 catalytic domain was detected for both constructs in the cell media; made in house; host or cells: Expi293F cells
T1 sequence (Q9BYE2 with tags, fused parts or gaps isoform Q9BYE2-6 limits assumed): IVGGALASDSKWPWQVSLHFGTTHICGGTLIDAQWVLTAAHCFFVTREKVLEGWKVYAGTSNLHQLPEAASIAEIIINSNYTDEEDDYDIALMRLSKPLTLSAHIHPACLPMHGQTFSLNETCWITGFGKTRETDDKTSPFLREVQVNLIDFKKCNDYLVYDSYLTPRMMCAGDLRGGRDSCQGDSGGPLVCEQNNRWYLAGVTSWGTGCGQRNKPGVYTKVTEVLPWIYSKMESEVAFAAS
Method: TMPRSS13-AFAAS-6His was expressed via the Expi293 Expression System Kit (Thermo Fisher Scientific, A14635) according to the manufacturer’s instructions and purified via IMAC chromatography. Briefly, Expi293F cells were transfected for 48 h with the TMPRSS13-AFAAS-6His construct, and media containing the shed recombinant protease was injected on a HisTrap Excel column (Cytiva, 17371206) via an ÄKTA Start protein purification system (Cytiva). The bound proteins were then eluted (20 mM sodium phosphate pH 7.4, 500 mM NaCl, and 500 mM imidazole), and the TMPRSS13-containing fractions were dialysed for 16 h at 4 °C in storage buffer (20 mM sodium phosphate pH 7.4, 150 mM NaCl, and 10% glycerol). Proteins were then concentrated via a 10 kDa Amicon Ultra centrifugal filter (Millipore Sigma, UFC8010) and stored at −80 °C.
(§1) Recombinant TMPRSS13-AFAAS-6His (this study) and matriptase[34] were expressed and purified as described. Recombinant human furin, Factor Xa (R&D Systems) and thrombin (MilliporeSigma) were obtained from commercial sources. Assays were performed in a buffer composed of 50 mM HEPES pH 7.4, 1 mM β-mercaptoethanol, 1 mM CaCl2 and 500 μg/ml BSA for furin and 50 mM HEPES pH 7.4, 150 mM NaCl and 0.1% BSA for other proteases. Assays were performed at room temperature using fluorogenic substrates (Boc-RVRR-AMC for furin and TMPRSS13, Boc-QAR-AMC for other proteases). The enzymatic activity was measured via fluorescence (excitation at 360 nm and emission at 460 nm) at room temperature using an HTX Synergy microplate reader (Agilent). Kis for TMPRSS13 and Factor Xa (FXa) were derived from IC50 dose–response curves using the Cheng-Prusoff equation[35] for reversible competitive inhibitors. For matripase, a plot of the enzyme velocity as a function of the inhibitor concentration was fitted with nonlinear regression analysis via the Morrison Ki equation[36] for competitive tight-binding inhibitors.

Factor Xa = target: T2, Factor Xa (Homo sapiens, UniProt P00742); experiment: In vitro inhibition assay, Factor Xa, Boc-QAR-AMC; type: biochemical; settings: Cheng-Prusoff equation
T2 construct: purchased R&D Systems
T2 sequence (P00742 235-488 limits assumed): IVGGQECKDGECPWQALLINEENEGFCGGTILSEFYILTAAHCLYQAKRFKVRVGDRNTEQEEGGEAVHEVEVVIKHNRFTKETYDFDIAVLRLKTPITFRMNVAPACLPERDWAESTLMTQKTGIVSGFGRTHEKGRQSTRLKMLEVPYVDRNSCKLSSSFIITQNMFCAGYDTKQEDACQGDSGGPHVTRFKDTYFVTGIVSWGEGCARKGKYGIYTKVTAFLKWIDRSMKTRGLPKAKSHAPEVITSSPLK
T2 sequence (P00742 41-179 partner limits assumed): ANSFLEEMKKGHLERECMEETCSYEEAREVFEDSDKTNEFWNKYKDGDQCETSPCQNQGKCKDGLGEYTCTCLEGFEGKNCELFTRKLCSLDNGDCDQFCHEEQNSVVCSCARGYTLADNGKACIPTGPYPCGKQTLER
Method: as §1

matriptase = target: T3, matriptase (Homo sapiens, UniProt Q9Y5Y6); experiment: In vitro inhibition assay, matriptase, Boc-QAR-AMC; type: biochemical; settings: Morrison Ki equation, tight-binding
T3 construct: made in house
T3 sequence (Q9Y5Y6 1-855): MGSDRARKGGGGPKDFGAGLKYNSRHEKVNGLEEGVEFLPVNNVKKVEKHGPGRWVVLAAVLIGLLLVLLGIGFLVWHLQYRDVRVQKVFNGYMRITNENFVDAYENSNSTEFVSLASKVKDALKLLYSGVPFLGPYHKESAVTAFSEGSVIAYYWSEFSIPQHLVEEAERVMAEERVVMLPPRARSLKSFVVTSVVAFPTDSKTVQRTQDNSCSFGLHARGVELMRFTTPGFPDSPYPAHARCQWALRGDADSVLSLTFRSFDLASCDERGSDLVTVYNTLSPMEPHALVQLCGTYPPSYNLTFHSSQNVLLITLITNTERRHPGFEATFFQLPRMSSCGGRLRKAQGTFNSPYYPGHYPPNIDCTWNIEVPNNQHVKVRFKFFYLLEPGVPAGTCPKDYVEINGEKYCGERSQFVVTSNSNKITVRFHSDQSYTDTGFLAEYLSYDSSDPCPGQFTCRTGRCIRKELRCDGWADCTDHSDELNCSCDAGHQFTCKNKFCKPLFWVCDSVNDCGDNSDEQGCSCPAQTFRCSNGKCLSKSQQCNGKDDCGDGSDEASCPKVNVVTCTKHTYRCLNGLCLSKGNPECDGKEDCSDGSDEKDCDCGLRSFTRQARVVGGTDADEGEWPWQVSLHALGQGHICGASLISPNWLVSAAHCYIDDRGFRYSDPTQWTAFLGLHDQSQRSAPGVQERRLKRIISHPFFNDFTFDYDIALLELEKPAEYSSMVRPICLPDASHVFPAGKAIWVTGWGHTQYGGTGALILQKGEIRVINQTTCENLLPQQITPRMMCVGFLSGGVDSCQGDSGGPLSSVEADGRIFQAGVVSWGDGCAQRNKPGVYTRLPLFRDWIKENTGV
Method: as §1

WT TMPRSS13 = target: T4, WT TMPRSS13 (Homo sapiens, UniProt Q9BYE2); experiment: In cellulo inhibitory activity in TMPRSS13-transfected Vero cells; type: cell-based; settings: 10 µM compound, 24 h, media, relative to DMSO; for remaining activity at 10 µM: read-out: residual activity of TMPRSS13
T4 construct: the full length TMPRSS13 (TMPRSS13-WT); expressed in transfected cells; host or cells: Vero C1008 (Vero E6) cells
T4 sequence (Q9BYE2 326-567 isoform Q9BYE2-6 limits assumed): T1 sequence (Q9BYE2 with tags, fused parts or gaps isoform Q9BYE2-6 limits assumed) with A238R, A240R, A241K
Method: Vero C1008 cells were grown in 12-well plates (200K cells per well) and transfected for 24 h via Lipofectamine 3000 (Life Technologies) with one of the following plasmids: pcDNA3.1 (empty vector, EV), pcDNA3.1-TMPRSS13 WT or pcDNA3.1-TMPRSS13-AFAAS-6His. The cells were then washed 2 times with PBS before HCell-100 medium (Wisent) containing the indicated concentrations of each compound or the control condition (0.01% DMSO) was added. After 24 h of incubation with the compounds, the medium was harvested, and 90 μL was placed in 96-well plate wells with 10 µL of 200 μM Boc-RVRR-AMC. Fluorescence was acquired at room temperature in an FLx800 TBE microplate reader, with excitation at 360 nm and emission at 460 nm. The background was then subtracted by removing the signal recorded with the cells transfected with the empty vector (pcDNA3.1). Proteolytic activity results are represented as a percentage of the DMSO-treated condition. The IC50 was calculated via nonlinear regression of the compound concentration relative to the velocity.

thrombin = target: T5, thrombin (Homo sapiens, UniProt P00734); experiment: In vitro inhibition assay, thrombin, Boc-QAR-AMC; type: biochemical
T5 construct: purchased MilliporeSigma
Method: as §1

furin = target: T6, furin (Homo sapiens, UniProt P09958); experiment: In vitro inhibition assay, furin, Boc-RVRR-AMC; type: biochemical
T6 construct: purchased R&D Systems
T6 sequence (P09958 108-794): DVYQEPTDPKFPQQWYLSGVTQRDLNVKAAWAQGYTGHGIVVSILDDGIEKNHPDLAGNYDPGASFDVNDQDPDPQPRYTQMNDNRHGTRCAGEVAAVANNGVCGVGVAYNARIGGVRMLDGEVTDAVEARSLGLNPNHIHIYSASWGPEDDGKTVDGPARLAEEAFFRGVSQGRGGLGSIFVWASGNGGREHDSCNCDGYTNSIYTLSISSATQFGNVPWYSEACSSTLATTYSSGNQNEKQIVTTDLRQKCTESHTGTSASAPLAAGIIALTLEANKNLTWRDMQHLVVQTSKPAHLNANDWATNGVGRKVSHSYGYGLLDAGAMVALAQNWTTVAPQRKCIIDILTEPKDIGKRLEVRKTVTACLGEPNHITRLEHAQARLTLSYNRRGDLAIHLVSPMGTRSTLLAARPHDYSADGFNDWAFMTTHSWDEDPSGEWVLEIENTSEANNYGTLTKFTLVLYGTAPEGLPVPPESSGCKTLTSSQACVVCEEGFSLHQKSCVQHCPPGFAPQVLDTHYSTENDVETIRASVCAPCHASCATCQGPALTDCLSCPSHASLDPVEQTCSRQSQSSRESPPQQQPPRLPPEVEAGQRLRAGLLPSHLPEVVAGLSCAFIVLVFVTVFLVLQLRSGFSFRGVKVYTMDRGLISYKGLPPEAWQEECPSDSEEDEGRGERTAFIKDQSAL
Method: as §1

human trypsin = experiment: Proteolysis assay (stability) with human trypsin; type: in vitro ADME; settings: human trypsin (isolated protease), pH 7.4, compound final conc. 10 µM, 37 °C
Method: For the proteolysis assay, human trypsin (#T6424, Sigma–Aldrich, Saint-Louis, Missouri, USA) was resuspended in 1 mM HCl and 20 mM CaCl2, pH 3, and diluted to a final concentration of 0.1 mg/ml in PBS buffer (pH 7.4, 10 mM PO43-, 150 mM NaCl). The control peptide R8 and the compounds of interest were added to a 96-well plate (37 °C) to a final concentration of 10 µM. Trypsin (0.1 µg/ml) was added to the wells for 0, 0.5, 1, 2, 4 and 6 h. The plate was quenched with AcN/EtOH (1:1) 1% formic acid and 0.25 mM N,N-dimethylbenzamide (IS) and centrifuged at 4 °C.

in vitro = settings: final conc. 0.2 mM, 37 °C
From the text: Adult male Sprague-Dawley rats, weighing between 225 and 300 g (Charles River Laboratories, St. Constant, Canada), were housed in groups of four per double-decker cage on Aspen shavings in a quiet environment. They were maintained under a 12-h light/dark cycle with unrestricted access to food and water. All experimental protocols received approval from the Animal Care Committee of the Université de Sherbrooke, adhering to the Canadian Council on Animal Care guidelines. The procedures also followed the ARRIVE guidelines (Animals in Research: Reporting In Vivo Experiments) and the United States NIH regulations (Ethics approval ID: 2022–3440). To evaluate the stability of compounds in plasma, 6 rats were anaesthetised with 2 L/min oxygen and 5% isoflurane, after which plasma was collected, pooled, and stored frozen until experiments were performed.
For evaluating plasma stability, rats were anaesthetised using a flow of 2 L/min of oxygen combined with 5% isoflurane. Blood was obtained via cardiac puncture from the left ventricle using a 20 G ½ needle, collected in pre-chilled Vacutainer K2EDTA tubes (367861), and maintained on wet ice. The blood was then centrifuged at 2000 xG for 15 min at 4 °C. Plasma samples were pooled from six rats, aliquoted, and stored at −80 °C. […] To terminate the reaction, 140 μL of a 1:1 acetonitrile-ethanol solution containing 0.25 mM N,N-dimethylbenzamide (used as an internal standard) was added. The resulting mixture was transferred onto an Impact Protein Precipitation filter plate (Phenomenex, California), with a 96-well UPLC plate positioned below to collect the filtrates. Both plates were centrifuged at 500 × g for 10 min at 4 °C. The filtrates were diluted with 30 μL of distilled water before analysis using an Acquity UPLC-MS system class H (column Acquity UPLC protein BEH C18 (2.1 mm × 50 mm), 1.7 μm particles, 130 Å pore size). The peptide’s half-life was determined from the degradation profile utilising the exponential one-phase decay function in GraphPad Prism 9. Mass spectra obtained at time points close to the calculated half-life were compared with those at 0 min (plasma inactivated prior to compound addition) to identify cleavage fragments.

Row | Structure (SMILES) | Ki (TMPRSS13) [nM] | further results
1 | C[C@H](NC(=O)[C@H](CCC(N)=O)NC(=O)[C@H](CCCNC(=N)N)NC(=O)c1ccccc1)C(=O)N[C@@H](CCCNC(=N)N)C(=O)c1nc2ccccc2s1 [Compound N-0182, PhCO-RQAR-Kbt] | 28.5 | 
2 | N=C(N)NCCC[C@H](NC(=O)[C@H](Cc1ccccc1)NC(=O)CCCC(N)=O)C(=O)c1nc2ccccc2s1 [Compound N-0388, (H)-QFR-Kbt] | 1440 | Ki (Factor Xa): 1200 ± 167 nM; Ki (matriptase): 24.2 nM; residual activity of TMPRSS13 (WT TMPRSS13; 10 µM): 92%; remaining activity at 10 µM (WT TMPRSS13; Vero): 72%; Ki (thrombin): > 10000 nM; Ki (furin): > 10000 nM
3 | N=C(N)NCCC[C@H](NC(=O)[C@@H]1CCCN1C(=O)[C@H](CCC(N)=O)NC(=O)[C@@H](N)CCCNC(=N)N)C(=O)c1nc2ccccc2s1 [Compound N-0107, RQPR-kbt] | 14.7 | 
4 | N=C(N)NCCCCC(=O)N[C@@H](CCC(N)=O)C(=O)N[C@@H](CCc1ccccc1)C(=O)N[C@@H](CCCNC(=N)N)C(O)c1nc2ccccc2s1 (stereo partly drawn) [N-0430(OH), (H)-RQhFR-(OH)bt] | > 10000 | 
5 | N=C(N)NCCC[C@H](NC(=O)[C@H](CCc1ccccc1)NC(=O)[C@H](CCC(N)=O)NC(=O)[C@@H](N)CCCNC(=N)N)C(=O)c1nc2ccccc2s1 [Compound N-0159, RQhFR-kbt] | 10.3 | half-life at 10 µM (human trypsin): 38.4 h; half-life at 0.2 mM (in vitro; male, Sprague-Dawley, rat, pooled rat plasma (K2EDTA), Mean half-life, Plasma): 9 min; Mean half-life, Plasma (in vitro; rat plasma (male)): 8.97 min; remaining activity at 10 µM (WT TMPRSS13): 37.7%
6 | C[C@H](NC(=O)[C@H](CCC(N)=O)NC(=O)[C@@H](N)CCCNC(=N)N)C(=O)N[C@@H](CCCNC(=N)N)C(=O)c1nc2ccccc2s1 [Compound N-0100] | 31.4 | 
7 | N=C(N)NCCCCC(=O)N[C@@H](CCC(N)=O)C(=O)N[C@@H](CC1CCCCC1)C(=O)N[C@@H](CCCNC(=N)N)C(=O)c1nc2ccccc2s1 [Compound N-0678] | 30 | 
8 | C[C@H](NC(=O)CCCCNC(=N)N)C(=O)N[C@@H](Cc1ccccc1)C(=O)N[C@@H](CCCNC(=N)N)C(=O)c1nc2ccccc2s1 [Compound N-0439, (H)-RAFR-Kbt] | 35.9 | 
9 | N=C(N)NCCC[C@H](NC(=O)[C@H](Cc1ccc(O)cc1)NC(=O)[C@H](CCC(N)=O)NC(=O)[C@@H](N)CCCNC(=N)N)C(=O)c1nc2ccccc2s1 [Compound N-0108] | 22.3 | 
10 | C[C@H](NC(=O)[C@H](CCC(N)=O)NC(=O)[C@@H](N)CCCCNC(=N)N)C(=O)N[C@@H](CCCNC(=N)N)C(=O)c1nc2ccccc2s1 [Compound N-0179] | 24.8 | 
11 | N=C(N)NCCC[C@H](NC(=O)[C@H](Cc1ccc(F)cc1)NC(=O)[C@H](CCC(N)=O)NC(=O)[C@@H](N)CCCNC(=N)N)C(=O)c1nc2ccccc2s1 [Compound N-0136] | 17.7 | 
